Data taken from patent US12195755B2, “Placental lipid bilayer for cell-free molecular interaction studies” (priority 2019, dated 2025).

Experiments:
keratinocytes = details: cited from earlier work
[1] = cited from earlier work
[2] = Parallel artificial membrane permeability assay (PAMPA) with suspended lipid bilayers; assay type: in vitro ADME, human; details: 0.1 mg/mL amphotericin B
Experimental: “Parallel artificial membrane permeability assay” (PAMPA) is a method that determines the permeability of substances from a donor compartment, through a lipid-infused artificial membrane into an acceptor compartment. A multi-well microtiter plate is used for the donor, and a membrane/acceptor compartment is placed on top. The whole assembly is referred to in the heterogeneous membrane art as a “sandwich.” Initially, the drug is added to the donor compartment, and the acceptor compartment is drug-free. After an incubation period, which may include stirring, the sandwich is separated, and the drug is measured in each compartment. Techniques including but not limited to absorbance measurements allow calculation of the drug that remains in the membrane.
Using a parallel artificial permeability assay (PAMPA) with suspended lipid bilayers, polyvinylidene difluoride (PVDF) 96-well multiscreen filter plates ([…]) and transport receiver plates (Millipore-Sigma, Burlington, MA, USA), the inventors investigate DEHP, amphotericin B, and amBisome® diffusion from a donor compartment, through the porous membrane treated with lipid, to an acceptor compartment. The maximum absorbance for DEHP, amphotericin B, and amBisome® was measured using a plate reader and determined to be 280 nm, 340 nm, and 320 nm, respectively. […]

CNC(=O)Oc1cccc2c1OC(C)(C)C2 [Carbofuran, carbofuran]
toxicity against keratinocytes (keratinocytes): toxic

CCCCC(CC)COC(=O)c1ccccc1C(=O)OCC(CC)CCCC (centres unmarked) [DEHP, di(2-ethylhexyl) phthalate]
risk for miscarriage ([1]; higher concentrations of phthalates): increases the risk for miscarriage | more likely to lose a pregnancy compared to women with lower levels ([1]; women exposed to high concentrations): 60%

C[C@@H]1[C@H](O)[C@@H](C)/C=C/C=C/C=C/C=C/C=C/C=C/C=C/[C@H](O[C@@H]2O[C@H](C)[C@@H](O)[C@H](N)[C@@H]2O)C[C@@H]2O[C@](O)(C[C@@H](O)C[C@@H](O)[C@H](O)CC[C@@H](O)C[C@@H](O)CC(=O)O[C@H]1C)C[C@H](O)[C@H]2C(=O)O [amphotericin B]
interaction with suspended trophoblast bilayers compared to amBisome® [2]: interacts less | interaction with suspended trophoblast bilayers compared to amBisome® ([2]; listed as Amphotericin B): interacted more
